Assay [1] relates to H37Rv strain of Mtb. As to the kind of experiment: Microplate alamar blue assay (MABA), in vitro anti-TB activity in 7H12 and GAS media. It is filed as cell-based, Mycobacterium tuberculosis. The conditions noted are these: for MIC / percentage in brackets after MIC >1, 7H12 / percentage in brackets after MIC >1, GAS: H37Rv; for percentage in brackets after MIC >1, 7H12: 7H12 medium; for percentage in brackets after MIC >1, 7H12 / percentage in brackets after MIC >1, GAS: bracketed percentage not defined in the patent; for percentage in brackets after MIC >1, GAS: GAS medium; for activity against H37Rv strain of Mtb (in words): in vitro. For orientation: Alamar Blue is a resazurin reagent that responds to reducing activity.

The target of assay [2] is DprE1 (Mycobacterium tuberculosis, UniProt P9WJF0). Particulars: cited from earlier work.
The mark [3] stands for this setting: Mycobacterium tuberculosis, 7H12 medium (7H9 plus casitone, palmitic acid, albumin and catalase), read-out: MABA:MIC 7H12.
Setting [4] is: Mycobacterium tuberculosis, GAS (glycerol-alanine-salts) medium, read-out: MABA:MIC GAS.
The mark [5] stands for this setting: 7H12 medium (7H9 plus casitone, palmitic acid, albumin and catalase), read-out: MABA:MIC 7H12.
[6] abbreviates: GAS (glycerol-alanine-salts) medium, read-out: MABA:MIC GAS.

Entries after “also recorded” stand apart in the source; their conditions may differ. Where two headings read alike, the source gives them in different places.

Sequence of DprE1 (P9WJF0 whole entry): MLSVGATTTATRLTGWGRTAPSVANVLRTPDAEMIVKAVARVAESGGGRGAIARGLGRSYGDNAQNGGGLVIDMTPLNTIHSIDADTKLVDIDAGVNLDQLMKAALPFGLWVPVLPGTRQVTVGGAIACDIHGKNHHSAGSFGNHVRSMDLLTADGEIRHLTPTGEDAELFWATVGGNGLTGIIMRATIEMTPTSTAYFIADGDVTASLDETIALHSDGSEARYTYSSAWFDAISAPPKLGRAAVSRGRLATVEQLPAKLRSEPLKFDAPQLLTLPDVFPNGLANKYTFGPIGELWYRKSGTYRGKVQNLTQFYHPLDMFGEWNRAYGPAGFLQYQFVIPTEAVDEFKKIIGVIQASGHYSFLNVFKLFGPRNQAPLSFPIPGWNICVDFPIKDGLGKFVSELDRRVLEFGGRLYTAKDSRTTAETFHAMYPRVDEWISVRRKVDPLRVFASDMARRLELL

As for `C[C@H]1COC2(CCN(c3nc(=O)c4cc(C(F)(F)F)cc(-n5cc(CN(C)C)nn5)c4s3)CC2)O1` [Compound 9], the MIC amounted to 0.87 µM in assay [1] (setting [3]) and 0.95 µM in assay [1] (setting [4]).
As to `C[C@H]1COC2(CCN(c3nc(=O)c4cc(C(F)(F)F)cc(N)c4s3)CC2)O1` [Compound 6], the MIC in assay [1] (setting [5]) is on record as over 1 µM. Besides, in assay [1], the “percentage in brackets after MIC >1, 7H12” value was determined as 87% and the “percentage in brackets after MIC >1, GAS” value amounted to 0%. Also, in assay [1] (setting [6]), the MIC was over 1 µM.
Turning to `C[C@H]1COC2(CCN(c3nc(=O)c4cc(C(F)(F)F)cc(N=[N+]=[N-])c4s3)CC2)O1` [Compound 3], the MIC in assay [1] (setting [3]) was 0.47 µM; in assay [1] (setting [4]), 0.46 µM. Besides, the “activity against H37Rv strain of Mtb (in words)” value is “outstanding activity; also recorded: impressive activity” in assay [1] and “impressive activity” in assay [1] (listed as BTZ-N3).
Take `CO[C@H]1/C=C/O[C@@]2(C)Oc3c(C)c(O)c4c(O)c(c(/C=N/N5CCN(C)CC5)c(O)c4c3C2=O)NC(=O)/C(C)=C\C=C\[C@H](C)[C@H](O)[C@@H](C)[C@@H](O)[C@@H](C)[C@H](OC(C)=O)[C@@H]1C` [Rifampin, reference compound]: the MIC in assay [1] (setting [3]) is 0.05 µM; in assay [1] (setting [4]) it was 0.04 µM.
`C[C@H]1COC2(CCN(c3nc(=O)c4cc(C(F)(F)F)cc([N+](=O)[O-])c4s3)CC2)O1` [BTZ043, reference compound]: the MIC in assay [1] (setting [3]) and in assay [1] (setting [4]) was under 0.004 µM in each case. Besides, the “mode of DprE1 inhibition (in words)” value in assay [2] was “suicide inhibitor”.
As to `O=c1nc(N2CCN(CC3CCCCC3)CC2)sc2c([N+](=O)[O-])cc(C(F)(F)F)cc12` [PBTZ169], in assay [2], the “mode of DprE1 inhibition (in words)” value is “suicide inhibitor”.
`NNC(=O)c1ccncc1` [INH, reference compound]: the values for the MIC in assay [1] (setting [5]) and in assay [1] (setting [6]) were 0.1 µM and 0.03 µM, respectively.
Regarding `CC1COC2(CCN(c3nc(=O)c4cc(C(F)(F)F)ccc4s3)CC2)O1` (centres unmarked) [Compound 8], the MIC in assay [1] (setting [5]) is reported as over 1 µM. Moreover, in assay [1], the “percentage in brackets after MIC >1, 7H12” value is recorded as 87%; the “percentage in brackets after MIC >1, GAS” value turned out to be 36%; the “activity against H37Rv strain of Mtb (in words)” value is “not significantly active; also recorded: reduced”. In addition, the MIC in assay [1] (setting [6]) is on record as over 1 µM.

The term MIC denotes the lowest concentration that inhibits growth of the organism.

The record behind these values is patent US9708339B2, “1,3-benzothiazinone, sulfoxide, and sulfone compounds with electrophilic substituent” (priority 2014, dated 2017).
